Two compounds from patent publication US20220380310A1, “P2X7R ANTAGONISTS” (priority 2019, published 2022) can be followed below.

The structures appear in SMILES notation.

Common to all, as to type: cell-based
Test [1] concerns the target T1, Human P2X4 receptor (P2X4R) (Homo sapiens, UniProt Q99571).
T1 construct: expressed in transfected cells; host or cells: HEK-293
T1 sequence (Q99571 1-388): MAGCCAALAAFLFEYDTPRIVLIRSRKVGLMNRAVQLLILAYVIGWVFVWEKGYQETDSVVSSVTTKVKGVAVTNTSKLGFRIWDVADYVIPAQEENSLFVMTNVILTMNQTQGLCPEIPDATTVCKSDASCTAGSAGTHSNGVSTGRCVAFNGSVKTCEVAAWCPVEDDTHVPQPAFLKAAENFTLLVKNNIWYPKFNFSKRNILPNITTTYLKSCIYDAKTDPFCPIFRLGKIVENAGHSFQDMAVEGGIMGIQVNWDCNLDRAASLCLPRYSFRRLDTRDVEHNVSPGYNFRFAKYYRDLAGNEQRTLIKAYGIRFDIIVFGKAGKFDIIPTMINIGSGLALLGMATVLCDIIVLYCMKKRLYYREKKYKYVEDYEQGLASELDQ
Put plainly: Receptor-mediated calcium entrance assay (Calcium Assay), P2X4R transfected HEK-293 cells. As to conditions: HEK293, compound at 5 μM, 1 mM ATP stimulus, read-out: Percentage of activity remains in the presence of the compound at 5 μM, P2X4R (Calcium Assay). From the text:
(§1) Human P2X1 receptor (P2X1R) is a member of P2X family. […] Thus, the calcium assay was used. In the calcium assay, P2X receptor activation leads to opening of ion channels, which increases intracellular calcium concentration. The increased intracellular calcium concentration can be detected by a calcium indicator dye such as Fluo-4 or Fluo-8. Molecular Probes™ Fluo-4, AM (Cat. No. F14201 from Fisher Scientific) was used in the assay. The procedures were similar as described in the Yo-Pro-1 assay until day 4. The construct of P2X1R for transient transfection to HEK-293 cells was the courtesy from Dr. Richard J. Evans laboratory (J. Biol. Chem. 279:9043-9055). After transfection and expression, on day 4 cells were washed twice by Ca-HBSS (The composition (in mM) was NaCl 135, HEPES 10, D-glucose 10, KCl 5.4, CaCl2 2, and MgCl2 1, pH to 7.4 by NaOH) and incubated in dye loading solution (The solution contained 2.5 μM Fluo-4, 1 mM probenecid, and 1× PowerLoad (Cat. No. P10020 from Fisher Scientific) in Ca-HBSS) for 70 minutes at 37° C. Then the extracellular loading dye was washed away and cells were incubated at Ca-HBSS containing 1 mM probenecid for 30 minutes. Before the final steps, probenecid was washed away with Ca-HBSS. The assay was performed by adding 25 μl of Ca-HBSS followed by 25 μl of various test compounds. At this point, the base level of fluorescence was obtained through the microplate reading—the base microplate reading for this assay. At the end, the stimulus (ATP at 20 μM was the final concentration for P2X1R) was added to activate the P2X1R. Activation of P2X1R opened the channel to allow influx of calcium, which was represented by fluorescence increases that were measured by the microplate device with excitation at 475 nm and emission wavelength in the range of 500-550 nm. The data were analyzed the same way as described before: The result of each well was first normalized by its corresponding base microplate reading. Then, the negative control signal was subtracted from. In the negative control, the test compound and the stimulus were replaced by Ca-HBSS. […] An average of six highest values of the plate (AVG) were considered as 100% and the value of each well was divided by AVG and presented as the relative values in percentages.
Human P2X4 receptor (P2X4R) construct (J. Biol. Chem. 290, 7930-7942) was transiently transfected to HEK-293 cells and the calcium assay was performed as described above. When 1 mM ATP was used as stimulus, an increased receptor mediated activity leading to intracellular calcium elevation can be seen in less than 10 minutes.

Test [2] addresses T2, P2X2R (Homo sapiens, UniProt Q9UBL9).
T2 construct: expressed in transfected cells; host or cells: HEK-293
T2 sequence (Q9UBL9 1-471): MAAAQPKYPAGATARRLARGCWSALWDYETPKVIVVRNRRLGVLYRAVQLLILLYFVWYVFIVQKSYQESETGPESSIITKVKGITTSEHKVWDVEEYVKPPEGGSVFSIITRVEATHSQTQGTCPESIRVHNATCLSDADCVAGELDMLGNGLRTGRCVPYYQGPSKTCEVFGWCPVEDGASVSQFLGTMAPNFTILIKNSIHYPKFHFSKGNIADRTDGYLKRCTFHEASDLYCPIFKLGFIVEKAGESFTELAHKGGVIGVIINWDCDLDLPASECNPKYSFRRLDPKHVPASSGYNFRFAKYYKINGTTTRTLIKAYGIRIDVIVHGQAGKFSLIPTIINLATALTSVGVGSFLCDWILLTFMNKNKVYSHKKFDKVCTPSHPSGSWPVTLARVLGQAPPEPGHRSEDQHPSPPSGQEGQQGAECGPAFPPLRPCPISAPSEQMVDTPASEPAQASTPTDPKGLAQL
Put plainly: Receptor-mediated calcium entrance assay (Calcium Assay), P2X2R. As to conditions: compound at 5 μM, read-out: Percentage of activity remains in the presence of the compound at 5 μM, P2X2R (Calcium Assay).

In test [3] the target is T3, Human P2X1 receptor (P2X1R) (Homo sapiens, UniProt P51575).
T3 construct: expressed in transfected cells; host or cells: HEK-293
T3 sequence (P51575 1-399): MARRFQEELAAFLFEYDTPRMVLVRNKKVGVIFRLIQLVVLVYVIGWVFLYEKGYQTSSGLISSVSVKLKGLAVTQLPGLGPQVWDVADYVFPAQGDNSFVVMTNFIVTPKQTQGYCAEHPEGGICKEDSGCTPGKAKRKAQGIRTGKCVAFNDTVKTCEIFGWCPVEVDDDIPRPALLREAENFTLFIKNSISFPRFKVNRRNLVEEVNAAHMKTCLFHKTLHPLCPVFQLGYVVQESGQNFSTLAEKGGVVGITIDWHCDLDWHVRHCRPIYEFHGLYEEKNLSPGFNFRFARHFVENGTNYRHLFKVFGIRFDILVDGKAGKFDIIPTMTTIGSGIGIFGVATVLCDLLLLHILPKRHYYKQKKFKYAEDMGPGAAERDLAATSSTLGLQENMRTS
Put plainly: Receptor-mediated calcium entrance assay (Calcium Assay), P2X1R transfected HEK-293 cells. As to conditions: HEK293, compound at 5 μM, ATP 20 μM stimulus, read-out: Percentage of activity remains in the presence of the compound at 5 μM, P2X1R (Calcium Assay).
Source text: as §1

As to `O=C(NCCc1ccccc1)C1CCN(S(=O)(=O)c2ccc(N3CCOCC3)cc2)CC1` [#23], the remaining activity at 5 µM in test [1] was 70.7%; in test [2], 57.7%; in test [3] it was 75.5%.
Take `O=C(CCc1ccccc1)NC1CCCN(S(=O)(=O)c2ccc(N3CCC(Oc4ccccc4)CC3)cc2)C1` (stereo not drawn) [#38]: the remaining activity at 5 µM came out at 71.1% in test [1], 52.2% in test [2] and 43.8% in test [3].
